Test results: US7442529B2, “Fluorescent probes for biological studies” (Massachusetts Institute of Technology, priority 2005, dated 2008)

Tests used:
[1] = Photophysical properties: UV absorbance, fluorescence emission and quantum yield in different solvents; assay type: physicochemical; conditions: for quantum yield (Φ): vs. quinine sulfate standard
Experimental: Quantum yields (Φ) were measured by comparison with a standard, which emits in a similar region to the test sample. From the available standard compounds quinine sulfate in 0.1 M H2SO4 (Φ=0.54) was selected.
UV absorbance at the excitation wavelength (375 nm), and fluorescence emission spectra of a series of solutions of the standard and compound were recorded. Solutions were prepared with different absorbances, ranging from 0 (solvent blank) to 0.1. A series of graphs of integrated fluorescence vs. absorbance were obtained. The data were fitted to a linear equation with gradient (grad), and intercept=0. See FIG. 5 as an example of the plots obtained.
The gradients of graphs in FIG. 5 are proportional to the quantum yield of the different samples. Absolute values were calculated using the standard sample, which has a fixed and known fluorescence quantum yield value, according to the following equation: […]
Where the subscripts std and x denote standard and test respectively. The value Φ is the fluorescence quantum yield, grad is the gradient (grad) from the plot of integrated fluorescence intensity vs. absorbance, and η the refractive index of the solvent.
The UV absorbance spectra (40 μM in methanol) and fluorescence emission spectra of compound (VIII), 6DMN-GlyOMe are shown in FIG. 6 and tabulated in Table 4. The UV spectrum of 6DMN-GlyOMe has an intense absorption band at 378 nm which is not found in unsubstituted 2,3-naphthalimides. The maximum excitation wavelength of 6DMN-GlyOMe is at 375 nm.
Quantum yields (Φ) were measured in the solvents listed in Table 2 by comparison with a standard, which emits in a similar region to 6DMN-GlyOMe. Quinine sulfate in 0.1 M H2SO4 (Φ=0.54) was used as the standard. (Melhuish, W. B. J. Phys. Chem., 1961, 65, 229-235). Solutions were prepared at different concentrations such that the absorbance measurements ranged between 0 and 0.1 at and above the excitation wavelength to avoid non-linear effects.
UV absorbance at the excitation wavelength (375 nm), and fluorescence emission spectra of a series of solutions of the standard and 6DMN-GlyOMe were recorded. A series of graphs of integrated fluorescence vs. absorbance were obtained. The data were fitted to a linear equation with gradient (grad), and intercept=0. The gradient (grad) is proportional to the quantum yield of the sample. Absolute values were calculated using the standard sample, which has a fixed and known fluorescence quantum yield value, according to the equation above.

[2] = Lippert-Mataga plot: Stokes shift vs. orientation polarizability; assay type: physicochemical; conditions: from Stokes shift in 1,4-dioxane/acetonitrile mixtures
Source text: This can be estimated from a Lippert-Mataga plot, which is essentially a plot of the Stokes shift of the fluorescence emission versus the solvent polarity. (Lippert, V. E. Z. Elektrochem. 1957, 61, 962-975; Mataga, N.; Kaifu, Y.; Koizumi, M. Bull. Chem. Soc. Jpn. 1956, 29, 465-470.)
The difference (Δ v) in the maximum absorption ( vA) and emission wavelengths ( vF), known as the Stokes shift and expressed in wavenumbers, is plotted vs. Δf. The term Δf is called the orientation polarizability and can be calculated according to the following equation:
[formula] where ε is the solvent dielectric constant and n is the solvent refraction index.
The term Δf can also be calculated for a mixture of solvents. […] In this case, Δf is obtained for each mixture using ε and n values calculated using the molar fractions (χ) in the equation as follow: ε=(χacetonitrile)(38.8)+(χdiox)(2.218) (3) n=(χacetonitrile)(1.3442)+(χdiox)(1.4224) (4) where χacetonitrile+χdiox=1.
The relationship between Δ v and Δf is expressed by the following equation:
[formula] where c is the velocity of light, h is Plank's constant, μe−μg is the difference between the dipole moments of the excited and the ground states respectively (Δμ), and α0 is the radius of the Onsager cavity around the compound.

COC(=O)CN1C(=O)c2cc3ccc(N(C)C)cc3cc2C1=O [Peptide 6DMN-GlyOMe]
maximum excitation wavelength [1]: 375 nm | intense absorption band of the UV spectrum ([1]; 40 μM in methanol): 378 nm | absorbance maximum ([1]; 1,4-dioxane): 372 nm | emission maximum ([1]; 1,4-dioxane): 498 nm | quantum yield (Φ) ([1]; 1,4-dioxane): 0.220 | absorbance maximum ([1]; 2-propanol): 385 nm | emission maximum ([1]; 2-propanol): 589 nm | quantum yield (Φ) ([1]; 2-propanol): 0.018 | absorbance maximum ([1]; DMF): 380 nm | emission maximum ([1]; DMF): 545 nm | quantum yield (Φ) ([1]; DMF): 0.155 | absorbance maximum ([1]; acetone): 375 nm | emission maximum ([1]; acetone): 532 nm | quantum yield (Φ) ([1]; acetone): 0.148 | absorbance maximum ([1]; acetonitrile): 380 nm | emission maximum ([1]; acetonitrile): 549 nm | quantum yield (Φ) ([1]; acetonitrile): 0.135 | absorbance maximum ([1]; chloroform): 380 nm | emission maximum ([1]; chloroform): 509 nm | quantum yield (Φ) ([1]; chloroform): 0.225 | absorbance maximum ([1]; dichloromethane): 379 nm | emission maximum ([1]; dichloromethane): 517 nm | quantum yield (Φ) ([1]; dichloromethane): 0.210 | absorbance maximum ([1]; ethanol): 379 nm | emission maximum ([1]; ethanol): 584 nm | quantum yield (Φ) ([1]; ethanol): 0.027 | absorbance maximum ([1]; methanol): 382 nm | emission maximum ([1]; methanol): 589 nm | quantum yield (Φ) ([1]; methanol): 0.012 | absorbance maximum ([1]; tetrahydrofuran): 373 nm | emission maximum ([1]; tetrahydrofuran): 510 nm | quantum yield (Φ) ([1]; tetrahydrofuran): 0.147 | absorbance maximum ([1]; toluene): 373 nm | emission maximum ([1]; toluene): 491 nm | quantum yield (Φ) ([1]; toluene): 0.208 | absorbance maximum ([1]; water): 388 nm | emission maximum ([1]; water): 592 nm | increase in the dipole moment between ground and excited state [2]: 5.5 D
